Assay results from US4999358A, “(1,2,3,4-tetrahydro-9-acridinimino)cyclohexane carboxylic acid and related compounds” (Hoechst-Roussel Pharmaceuticals Inc., priority 1989, dated 1991).

Assays:
[1] = tested on: Scopolamine Induced Memory Deficit; assay: Scopolamine-induced Dark Avoidance Assay; conditions: s.c., mice, 24 h
Procedure: In this assay mice are tested for their ability to remember an unpleasant stimulus for a period of 24 hours. A mouse is placed in a chamber that contains a dark compartment; a strong incandescent light drives it to the dark compartment, where an electric shock is administered through metal plates on the floor. The animal is removed from the testing apparatus and tested again, 24 hours later, for the ability to remember the electric shock.
If scopolamine, an anticholinergic that is known to cause memory impariment, is administered before an animal's initial exposure to the test chamber, the animal re-enters the dark compartment shortly after being placed in the test chamber 24 hours later.

acetylcholinesterase = acetylcholinesterase (Homo sapiens, UniProt P22303); assay: Cholinesterase inhibition assay (photometric method of Ellman et al.); format: biochemical
Sequence of acetylcholinesterase (P22303 32-614): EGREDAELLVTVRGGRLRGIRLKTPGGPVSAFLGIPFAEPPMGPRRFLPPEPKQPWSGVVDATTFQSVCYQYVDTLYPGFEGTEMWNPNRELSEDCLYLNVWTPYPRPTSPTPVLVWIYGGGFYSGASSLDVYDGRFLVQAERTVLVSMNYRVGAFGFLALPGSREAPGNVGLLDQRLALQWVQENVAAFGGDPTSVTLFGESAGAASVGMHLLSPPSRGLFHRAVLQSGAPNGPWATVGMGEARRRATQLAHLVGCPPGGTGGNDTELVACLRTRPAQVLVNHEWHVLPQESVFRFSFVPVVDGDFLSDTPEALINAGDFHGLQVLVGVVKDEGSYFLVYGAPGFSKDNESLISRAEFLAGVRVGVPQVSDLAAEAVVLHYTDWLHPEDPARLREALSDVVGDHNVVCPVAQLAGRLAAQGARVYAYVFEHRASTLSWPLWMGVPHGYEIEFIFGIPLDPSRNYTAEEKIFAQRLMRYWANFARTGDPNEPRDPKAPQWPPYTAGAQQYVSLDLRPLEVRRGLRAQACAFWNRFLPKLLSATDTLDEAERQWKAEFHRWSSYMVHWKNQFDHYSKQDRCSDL

Compound: CC1(C(=O)O)CCCCC1=Nc1c2c(nc3ccccc13)CCCC2 (stereo not drawn) [1-Methyl-2-(1,2,3,4-tetrahydroacridinimino)cyclohexane carboxylic acid]
- % of Animals with Scopolamine Induced Memory Deficit Reversal ([1]; 2.5 mg/kg of body weight): 20%

Compound: CCOC(=O)C1CCCCC1=Nc1c2c(nc3ccccc13)CCCC2 (stereo not drawn) [2-(1,2,3,4-Tetrahydro-9-acridinimino)cyclohexanecarboxylic acid ethyl ester]
- IC50 (acetylcholinesterase): 15.2 µM
- % of Animals with Scopolamine Induced Memory Deficit Reversal ([1]; 0.16 mg/kg of body weight): 29%

Compound: O=C(O)C1CCCCC1=Nc1c2c(nc3ccccc13)CCCC2 (stereo not drawn) [2-(1,2,3,4-Tetrahydro-9-acridinimino)cyclohexanecarboxylic acid]
- % of Animals with Scopolamine Induced Memory Deficit Reversal ([1]; 0.63 mg/kg of body weight): 53%

Compound: O=C(OCc1ccccc1)C1=C(N(Cc2ccccc2)c2c3c(nc4ccccc24)CCCC3)CCCC1 [2-[N-(Phenylmethyl)-1,2,3,4-tetrahydro-9-acridinamino]-cyclohex-1-ene carboxylic acid phenylmethyl ester]
- % of Animals with Scopolamine Induced Memory Deficit Reversal ([1]; 0.63 mg/kg of body weight): 29%

Compound: CNC(=O)Oc1ccc2c(c1)[C@]1(C)CCN(C)[C@@H]1N2C [Physostigmine, reference compound]
- % of Animals with Scopolamine Induced Memory Deficit Reversal ([1]; 0.31 mg/kg of body weight): 20%
